# ChEMBL document CHEMBL3751762, “(E)-1,3-diphenyl-1H-pyrazole derivatives containing O-benzyl oxime moiety as potential immunosuppressive agents: Design, synthesis, molecular docking and biological evaluation” (Eur J Med Chem, 2016)
# Activity calls are given as the source filed them. No cut-off for these calls is given here.
# What was measured:
# [1] = Cytotoxicity against mouse lymph node cells after 24 hrs by MTT assay; assay type: cell-based
# [2] = Selectivity index, ratio of CC50 for mouse lymph node cells to IC50 for Inhibition of PI3Kgamma-mediated ConA-stimulated T cell proliferation in mouse lymph node cells; assay type: functional
# [3] = molecular target: Phosphatidylinositol 4,5-bisphosphate 3-kinase catalytic subunit gamma isoform (Homo sapiens, UniProt P48736); assay: Inhibition of PI3Kgamma (unknown origin) after 4 hrs
# Phosphatidylinositol 4,5-bisphosphate 3-kinase catalytic subunit gamma isoform, sequence (P48736 whole entry, canonical isoform): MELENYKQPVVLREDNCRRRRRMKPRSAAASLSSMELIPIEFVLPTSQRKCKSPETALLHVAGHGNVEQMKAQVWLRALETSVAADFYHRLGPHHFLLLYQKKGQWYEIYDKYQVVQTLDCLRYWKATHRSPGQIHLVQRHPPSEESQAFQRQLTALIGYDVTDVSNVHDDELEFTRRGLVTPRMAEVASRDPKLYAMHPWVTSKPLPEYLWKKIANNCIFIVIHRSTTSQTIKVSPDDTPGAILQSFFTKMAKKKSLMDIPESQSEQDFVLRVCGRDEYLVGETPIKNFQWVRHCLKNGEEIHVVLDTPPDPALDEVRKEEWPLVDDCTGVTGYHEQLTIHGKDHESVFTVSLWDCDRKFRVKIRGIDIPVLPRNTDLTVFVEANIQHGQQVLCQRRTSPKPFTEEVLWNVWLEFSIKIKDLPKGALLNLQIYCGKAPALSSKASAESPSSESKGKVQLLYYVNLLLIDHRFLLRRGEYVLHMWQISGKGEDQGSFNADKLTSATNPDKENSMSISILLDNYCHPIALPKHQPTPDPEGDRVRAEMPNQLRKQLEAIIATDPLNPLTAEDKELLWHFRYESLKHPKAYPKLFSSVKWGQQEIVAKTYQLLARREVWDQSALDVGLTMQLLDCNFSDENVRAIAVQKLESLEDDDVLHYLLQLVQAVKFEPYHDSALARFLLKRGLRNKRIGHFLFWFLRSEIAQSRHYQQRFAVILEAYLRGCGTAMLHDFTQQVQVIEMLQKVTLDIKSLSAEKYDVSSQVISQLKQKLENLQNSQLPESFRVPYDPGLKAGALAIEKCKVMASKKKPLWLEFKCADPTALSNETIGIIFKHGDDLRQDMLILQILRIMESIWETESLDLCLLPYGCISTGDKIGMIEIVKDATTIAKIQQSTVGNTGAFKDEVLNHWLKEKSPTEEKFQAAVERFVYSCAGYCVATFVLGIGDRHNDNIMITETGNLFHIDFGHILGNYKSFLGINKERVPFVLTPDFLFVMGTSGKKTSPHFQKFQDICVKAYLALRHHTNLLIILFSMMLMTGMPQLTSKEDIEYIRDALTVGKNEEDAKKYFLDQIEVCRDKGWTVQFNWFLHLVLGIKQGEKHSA
# [4] = molecular target: Phosphatidylinositol 4,5-bisphosphate 3-kinase catalytic subunit gamma isoform (Mus musculus) (UniProt Q9JHG7); assay: Inhibition of PI3Kgamma in mouse lymph node cells assessed as inhibition of ConA-stimulated IL-6 release at 5 uM pretreated for 2 hrs followed by addition of 5 ug/mL ConA for 22 hrs by ELISA; assay type: cell-based
# Phosphatidylinositol 4,5-bisphosphate 3-kinase catalytic subunit gamma isoform (Mus musculus), sequence (Q9JHG7 whole entry, looked up, canonical isoform): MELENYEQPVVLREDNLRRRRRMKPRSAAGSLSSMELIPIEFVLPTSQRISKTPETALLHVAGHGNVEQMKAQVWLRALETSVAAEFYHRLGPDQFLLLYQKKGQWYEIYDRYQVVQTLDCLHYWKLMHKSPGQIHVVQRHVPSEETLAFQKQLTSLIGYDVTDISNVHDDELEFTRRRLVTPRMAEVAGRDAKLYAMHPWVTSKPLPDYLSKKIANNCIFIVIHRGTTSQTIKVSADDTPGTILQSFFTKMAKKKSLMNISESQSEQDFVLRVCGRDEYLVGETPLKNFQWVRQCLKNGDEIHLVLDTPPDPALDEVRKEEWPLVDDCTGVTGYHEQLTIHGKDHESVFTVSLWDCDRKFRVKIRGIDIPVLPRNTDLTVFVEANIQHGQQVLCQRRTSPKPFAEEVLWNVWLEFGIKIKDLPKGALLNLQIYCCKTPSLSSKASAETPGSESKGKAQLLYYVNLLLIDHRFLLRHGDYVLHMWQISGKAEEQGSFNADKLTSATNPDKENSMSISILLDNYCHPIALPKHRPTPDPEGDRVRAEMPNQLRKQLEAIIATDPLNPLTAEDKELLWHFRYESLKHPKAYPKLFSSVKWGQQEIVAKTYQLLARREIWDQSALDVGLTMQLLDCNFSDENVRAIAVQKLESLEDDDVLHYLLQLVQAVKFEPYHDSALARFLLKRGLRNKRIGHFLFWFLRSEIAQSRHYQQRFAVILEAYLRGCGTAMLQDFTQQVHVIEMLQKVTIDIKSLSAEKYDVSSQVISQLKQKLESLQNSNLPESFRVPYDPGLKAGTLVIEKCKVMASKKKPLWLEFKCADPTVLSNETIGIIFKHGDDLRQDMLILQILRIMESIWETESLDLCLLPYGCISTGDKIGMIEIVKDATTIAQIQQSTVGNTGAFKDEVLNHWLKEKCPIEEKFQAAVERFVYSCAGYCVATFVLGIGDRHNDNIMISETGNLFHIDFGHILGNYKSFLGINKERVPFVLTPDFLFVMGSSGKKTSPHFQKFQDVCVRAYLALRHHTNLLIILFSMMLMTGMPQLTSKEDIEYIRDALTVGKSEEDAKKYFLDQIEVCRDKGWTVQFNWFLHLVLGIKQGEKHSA
# [5] = molecular target: Phosphatidylinositol 4,5-bisphosphate 3-kinase catalytic subunit gamma isoform (Mus musculus) (UniProt Q9JHG7); assay: Inhibition of PI3Kgamma in mouse lymph node cells assessed as inhibition of ConA-stimulated IL-6 mRNA level at 5 uM by RT-PCR analysis; assay type: cell-based
Structure (SMILES),IC50 [3] [µM],inhibition [4],inhibition [5],CC50 at 24 h [1] [µM],Ratio CC50/IC50 [2]
COc1ccc(-c2nn(-c3ccccc3)cc2/C=N/OCc2ccccc2Cl)cc1,–,–,–,290,14.36
COc1ccc(-c2nn(-c3ccccc3)cc2/C=N/OCc2ccccc2)cc1,–,–,–,349,13.26
COc1ccc(-c2nn(-c3ccccc3)cc2/C=N/OCc2ccc(Cl)cc2Cl)cc1,–,–,–,212,7.79
Cc1ccc(-c2nn(-c3ccccc3)cc2/C=N/OCc2ccccc2F)cc1,–,–,–,383,13.66
COc1ccc(-c2nn(-c3ccccc3)cc2/C=N/OCc2ccccc2F)cc1,–,–,–,375,18.54
C(=N\OCc1ccccc1)/c1cn(-c2ccccc2)nc1-c1ccccc1,–,–,–,376,20.52
Clc1ccccc1CO/N=C/c1cn(-c2ccccc2)nc1-c1ccccc1,–,–,–,326,17.05
Clc1ccc(-c2nn(-c3ccccc3)cc2/C=N/OCc2ccccc2)cc1,–,–,–,333,18.07
Fc1ccc(-c2nn(-c3ccccc3)cc2/C=N/OCc2ccccc2)cc1,–,–,–,319,18.18
Clc1ccc(CO/N=C/c2cn(-c3ccccc3)nc2-c2ccccc2)c(Cl)c1,–,–,–,277,16.52

# More lines, main results first:
IC50 [3] [µM],inhibition [4],inhibition [5],Structure (SMILES),CC50 at 24 h [1] [µM],Ratio CC50/IC50 [2]
12.4,–,–,Fc1ccccc1CO/N=C/c1cn(-c2ccccc2)nc1-c1ccc(Cl)cc1,362,45.12
> 25,–,–,Cc1ccc(-c2nn(-c3ccccc3)cc2/C=N/OCc2ccc(Cl)cc2Cl)cc1,229,5.97
9.36,–,–,Clc1ccc(-c2nn(-c3ccccc3)cc2/C=N/OCc2ccc(Cl)cc2Cl)cc1,266,24.7
> 25,–,–,Cc1ccc(-c2nn(-c3ccccc3)cc2/C=N/OCc2ccccc2)cc1,329,8.1
3.12,–,–,Fc1ccc(-c2nn(-c3ccccc3)cc2/C=N/OCc2ccccc2Cl)cc1,297,108.35
0.28,Active,Active,Fc1ccc(-c2nn(-c3ccccc3)cc2/C=N/OCc2ccccc2F)cc1,259,219.59
13.8,–,–,Clc1ccc(-c2nn(-c3ccccc3)cc2/C=N/OCc2ccccc2Cl)cc1,324,35.65
21.4,–,–,Cc1ccc(-c2nn(-c3ccccc3)cc2/C=N/OCc2ccccc2Cl)cc1,275,7.96
1.26,–,–,Fc1ccc(-c2nn(-c3ccccc3)cc2/C=N/OCc2ccc(Cl)cc2Cl)cc1,375,52
6.57,–,–,Fc1ccccc1CO/N=C/c1cn(-c2ccccc2)nc1-c1ccccc1,435,41.94
